Data: patent US7125865B2, “Therapeutic compounds for treating dyslipidemic conditions” (Merck & Co., Inc., priority 2002, dated 2006)

System: Caco-2 cells
Experiment: apoA-I mediated 3H-cholesterol efflux from Caco-2 cells
Type: cell-based, human
Conditions: 24 h, 10 μg/ml apoA-I, mean and SEM of quadruplicate
Procedure: To assess the relevant biological activity of the LXR agonists, certain compounds were tested for their ability to increase cholesterol efflux from cultured human cells, as described by Sparrow et al., JBC volume 277, pages 10021–10027, Mar. 22, 2002. Caco-2 cells, which are of human origin, were obtained from ATCC and grown in Opti-MEM (Gibco #51985-034) containing 10% FCS, non-essential amino acids (Gibco #11140-050), and vitamins (Gibco # 11120-052). Caco-2 cells were plated at 100,000 cells/well in 48-well plates. After four days the cells had reached confluence, and were then labeled with ^3H-cholesterol by incubation for 24 hours in fresh growth media containing ^3H-cholesterol (10 μCi/ml). Following labeling with ^3H-cholesterol, cells were washed and incubated an additional 24 hours in serum-free media containing 1 mg/ml BSA, to allow for equilibration of ^3H-cholesterol with intracellular cholesterol. Cholesterol efflux was initiated by adding 10 μg/ml apoA-I, with or without compound, in serum-free medium. Compounds were added to cell culture medium from DMSO solutions, and control cells received an equivalent amount of DMSO, never exceeding 0.1%. After 24 hours, media were harvested and cells dissolved in 0.1 M NaOH. Media were briefly centrifuged to remove non-adherent cells, and then aliquots of both the supernatants and the dissolved cells were subjected to liquid scintillation spectrometry to determine radioactivity. Cholesterol efflux is expressed as a percentage, calculated as (^3H-cholesterol in medium/(^3H-cholesterol in medium+^3H-cholesterol in cells))×100.

In the case of `CCCc1c(OCCCN2C(=O)CSC2=O)ccc2c(C(F)(F)F)noc12` [Example 16, 3-(3-{[7-propyl-3-(trifluoromethyl)-1,2-benzisoxazol-6-yl]oxy}propyl)thiazolidine-2,4-dione], the “% cholesterol efflux” value (compound concentration 1 nM) was 3.2 ± 0.3%, the “% cholesterol efflux” value (compound concentration 10 nM) was 4.0 ± 0.2% and the “% cholesterol efflux” value (compound concentration 100 nM) was 8.8 ± 0.7%. For the same compound, the “% cholesterol efflux” value (compound concentration 1000 nM) was 10.3 ± 0.3% and the “% cholesterol efflux” value (compound concentration 5000 nM) was 6.6 ± 0.4%.
`CCCc1c(OCCCN2C(=O)NC(C)(c3ccccc3)C2=O)ccc2c(C(F)(F)F)noc12` (racemic) [Example 25, rac-5-methyl-5-phenyl-3-(3-{[7-propyl-3-(trifluoromethyl)-1,2-benzisoxazol-6-yl]oxy}propyl)imidazolidine-2,4-dione] was tested, and the “% cholesterol efflux” value (compound concentration 1 nM) was 3.4 ± 0.3%, the “% cholesterol efflux” value (compound concentration 10 nM) was 3.5 ± 0.09% and the “% cholesterol efflux” value (compound concentration 100 nM) was 4.5 ± 0.09%. The “% cholesterol efflux” value (compound concentration 1000 nM) was 4.6 ± 0.09% and the “% cholesterol efflux” value (compound concentration 5000 nM) was 5.2 ± 0.2%.
